Experimental data taken from PMC4528135, “Kinetic Investigations of the Role of Factor Inhibiting Hypoxia-inducible Factor (FIH) as an Oxygen Sensor” (The Journal of Biological Chemistry, 2015).

Target: T1, PHD2 (Homo sapiens, UniProt Q9GZT9)
T1 construct: The catalytic domain of PHD2 (residues 181–426) was purified as described; made in house
Experiment: Rapid quench-flow, PHD2 pre-steady-state product and succinate formation
Type: biochemical
Conditions: same mixture as stopped-flow, O2-saturated buffer 1:1, 5 °C, quenched with 1% CF3CO2H; for Rapid quench-flow kproduct: peptide hydroxylation by MALDI-TOF-MS, single exponential fit; for Rapid quench-flow ksuccinate: succinate by LC-MS
Procedure: Rapid quench-flow experiments were performed using the same conditions and preparation of the assay mixture as used in stopped-flow experiments. Rapid quench-flow equipment (TgK Scientific Ltd.) in an anaerobic glove box was used for the experiments. Samples were quenched with 1% CF3CO2H and analyzed using MALDI-TOF-MS (peptide hydroxylation) as described above or liquid chromatography-mass spectrometry (LC-MS, for succinate production). For LC-MS, chromatographic separation was performed at 50 °C using a Waters ACQUITY BEH Amide 1.7-μm, 2.1 × 100-mm column on a Waters ACQUITY^TM ultraperformance liquid chromatography system (Waters Corp., Milford, MA). The following eluents were used: mobile phase A: 10% H2O, 90% acetonitrile (v/v), 10 mM ammonium formate; mobile phase B: 50% H2O, 50% acetonitrile (v/v), 10 mM ammonium formate. The elution gradient was 0–7.0 min linear from 10 to 30% B, and 7.0–9.0 min at 10% B for re-equilibration of the column. A constant flow rate of 0.4 ml/min was used. Analytes were detected in negative ionization mode using single reaction monitoring on a Quattro triple quadrupole mass spectrometer (Waters) with a cone voltage of 15 V and a capillary voltage of 3.0 kV. The desolvation temperature was set to 250 °C, and the source temperature was set to 120 °C.
To investigate correlation of the spectroscopic observations with rates of product accumulation, equivalent reactions were analyzed by rapid quench-flow methodology. Anerobically prepared PHD2·Fe(II)·2OG·peptide substrate complexes were mixed with O2-saturated buffer in a 1:1 ratio; reactions were quenched at defined time points with 1% aqueous CF3CO2H. The level of peptide hydroxylation was assessed by MALDI-TOF-MS ([42]), and succinate accumulation was analyzed by LC-MS. To obtain rate constants for product accumulation, the results were fitted with a single exponential function (Fig. 5E and Table 3).

T1 sequence (Q9GZT9 181-426): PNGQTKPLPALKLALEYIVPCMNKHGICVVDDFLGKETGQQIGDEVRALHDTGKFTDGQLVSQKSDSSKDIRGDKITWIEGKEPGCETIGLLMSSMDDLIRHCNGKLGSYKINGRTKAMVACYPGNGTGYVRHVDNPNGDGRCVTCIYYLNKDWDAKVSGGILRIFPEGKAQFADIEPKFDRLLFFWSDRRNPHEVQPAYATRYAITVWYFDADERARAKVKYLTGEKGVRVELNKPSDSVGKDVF

## EELAQLAPTPGDAIISLDF [HIF-2α NODD, 19-mer fragment (398–416) of the HIF-2α N-terminal oxygen-dependent degradation domain, PHD2 substrate]
  Rapid quench-flow kproduct: 0.0199 ± 0.0032 s⁻¹
  Rapid quench-flow ksuccinate: 0.0270 ± 0.0060 s⁻¹

## ELDLETLAPYIPMDGEDFQ [HIF-2α CODD, 19-mer fragment (523–541) of the HIF-2α C-terminal oxygen-dependent degradation domain, PHD2 substrate]
  Rapid quench-flow kproduct: 0.0124 ± 0.0030 s⁻¹
  Rapid quench-flow ksuccinate: 0.0120 ± 0.0070 s⁻¹
